Test: dermal toxicity of granular formulations (dermal LD50), male albino rabbits
Conditions: rabbit, in vivo, topical or ocular, Table I, 24 h cuff, 14 days observation, O,O-diethyl S-{[(1,1-dimethylethyl)thio]methyl}phosphorodithioate
Text: General method for the evaluation of dermal toxicity of the formulations of the present invention using male albino rabbits as the test animals
a. Five male albino rabbits weighing approximately 2.2 to 3.5 kilogram are selected for each dosage level. The hair is shaved from the entire trunk.
b. Saran tubing or "Vinylite" film VU1900, 30.5 cm (12") wide, 0.04 millimeter in thickness and long enough to fit around the rabbit.
c. One felt cloth bandage measuring approximately 22.9×45.7 cm (9"×18").
d. Four pieces of 3.8 cm (1.5") adhesive tape approximately 35.6 cm (14") long.
a. The granular material is placed in the center of the plastic film and is moistened with water.
b. The rabbits underside is moistened with water and the animals are placed belly down on the material.
c. The plastic is then brought up and around the animal and secured at each end with strips of adhesive tape. The felt cloth is then placed under the belly and brought up around the animal and secured to the body with the remaining two strips of adhesive tape.
Twenty-four hours after dosing, the "cuff" is removed and any remaining material is brushed away. If the test material cannot be removed, the animal is fitted with a fiber collar which prevents the animal from licking the treatment area. The animals are observed for 14 days, post dosing, noting signs of toxicity, skin irritation and mortality. […]

CCOP(=S)(OCC)SCSC(C)(C)C [O,O-diethyl S-{[(1,1-dimethylethyl)thio]methyl}phosphorodithioate]
LD50 at 336 h: 1 to 2 mg/kg

Reference: patent US4343790A, “Controlled release acrylic polymer coated granular pesticidal compositions with attendant reduced dermal toxicity” (priority 1980, dated 1982)
